From patent US20260294906A1, “TREATING PSORIASIS USING A SMALL MOLECULE INHIBITOR OF TUMOR NECROSIS FACTOR ALPHA” (SANOFI, priority 2023, published 2026)
“Also recorded” adds a separate entry of the source.

System: participants with mild to moderate psoriasis
Test: Adverse events and safety in the clinical study
Format: in vivo, human
Protocol: A double-blind, randomized, placebo-controlled phase 1 study was carried out in participants with mild to moderate psoriasis. Study participants were randomized to 200 mg twice a day (BID) of Compound 1 or placebo in 2:1 ratio (approximately 24 in the treatment group and 12 in the placebo group). The study comprised an up to 4-week screening period, and a 4-week treatment period with Compound 1 or placebo. An end-of-study visit was carried out 10±3 days after the last investigational medicinal product (IMP) administration.
The primary objective of the study was to assess the safety, tolerability, and clinical efficacy of Compound 1 at 200 mg BID via oral administration. Also evaluated was the clinical effect of Compound 1 as compared to placebo on the percent change in PASI and TLS scores from baseline to week 2 and week 4. The percent change in PASI score from baseline to week 4 was determined. TLS score was also assessed over the same time period. Also assessed was the effect of Compound 1 on biomarkers of psoriasis. Blood samples collected at predetermined time points were processed to quantify serum levels of biomarkers, including interleukin (IL)-17A, IL-17F, and IL-22 by high sensitivity methods. IL-17A, IL-17F and IL-22 are the main cytokines released by Th17 cells. Plasma levels of Compound 1 were measured to assess pharmacokinetics in the study population.
Two study interventions were used, Compound 1 and placebo. The Compound 1 intervention comprised 4× tablets of Compound 1 50 mg twice daily, i.e. 200 mg BID, for 4 weeks. The placebo intervention was 4× tablets of placebo twice daily for 4 weeks. Tablets were administered orally.
Adverse events (AEs) were reported by the participant or observed by the Investigator, and were defined as follows: • An AE is any untoward medical occurrence in a patient or clinical study participant, temporally associated with the use of study intervention, whether or not considered related to the study intervention. • NOTE: An AE can therefore be any unfavorable and unintended sign (including an abnormal laboratory finding), symptom, or disease (new or exacerbated) temporally associated with the use of study intervention.
Events meeting the AE definition: • Any abnormal laboratory test results (hematology, clinical chemistry, or urinalysis) or other safety assessments (e.g., ECG, radiological scans, vital signs measurements), including those that worsen from baseline, considered clinically significant in the medical and scientific judgment of the Investigator (i.e., not related to progression of underlying disease), e.g.: • Symptomatic and/or • Requiring either corrective treatment or consultation, and/or • Leading to IMP discontinuation or modification of dosing, and/or • Fulfilling a seriousness criterion, and/or • Defined as an AESI • Exacerbation of a chronic or intermittent pre-existing condition including either an increase in frequency and/or intensity of the condition. • New condition detected or diagnosed after study intervention administration even though it may have been present before the start of the study. • Signs, symptoms, or the clinical sequelae of a suspected drug-drug interaction. • Signs, symptoms, or the clinical sequelae of a suspected overdose of either study intervention or a concomitant medication. • Lack of efficacy or failure of expected pharmacological action per se will not be reported as an AE or SAE. Such instances will be captured in the efficacy assessments. However, the signs, symptoms, and/or clinical sequelae resulting from lack of efficacy will be reported as AE or SAE if they fulfill the definition of an AE or SAE.
Complications that occur during hospitalization are AEs. If a complication prolongs hospitalization or fulfills any other serious criteria, the event is serious. […]

[1] = 200 mg BID, N = 26, placebo 33.3%

CN1C(=O)c2cccc(OC(F)F)c2[C@H]2C[C@@H]1c1nc3ccc(-c4cnc(C5(N)CCC5)nc4)cc3n12 [Compound 1, (7R,14R)-11-[2-(1-aminocyclobutyl)pyrimidin-5-yl]-1-(difluoromethoxy)-6-methyl-6,7-dihydro-7,14-methanobenzimidazo[1,2-b][2,5]benzodiazocin-5(14H)-one]
safety and tolerability (in words) (200 mg BID over 28 days): safe and well-tolerated
serious AEs (SAEs), severe TEAEs or AEs of special interest (AESI) (200 mg BID, 4 weeks): no serious AEs (SAEs), severe TEAEs or AEs of special interest (AESI); also recorded: no serious AEs, severe treatment emergent AEs, or AESI being reported; also recorded: No serious or severe adverse events were observed
Number of TEAEs leading to permanent study intervention discontinuation (200 mg BID, 2 participants): 2
drop-out due to CPK increase (200 mg BID, Day 8, linked to increased physical activity): another participant dropped out on Day 8 due to CPK increase (grade 2) assessed by the investigator as non-drug related
drop-out due to nausea (200 mg BID, Day 15): one participant dropped out on Day 15 due to nausea assessed by the investigator as drug related
Number of participants with Dysgeusia (PT) (200 mg BID, N = 26, placebo 0): 16
% of participants with Dysgeusia (PT) (200 mg BID, N = 26, placebo 0%): 61.5%
Number of participants with gastrointestinal disorders (SOC) (200 mg BID, N = 26, placebo 2): 8
Number of participants with headache (PT) (200 mg BID, N = 26, placebo 4): 8
Number of participants with infections and infestations (SOC) (200 mg BID, N = 26, placebo 4): 4
Number of participants with nervous systems disorders (SOC) (200 mg BID, N = 26, placebo 4): 19
% of participants with gastrointestinal disorders (SOC) (200 mg BID, N = 26, placebo 16.7%): 30.8%
% of participants with headache (PT) [1]: 30.8%
% of participants with infections and infestations (SOC) [1]: 15.4%
% of participants with nervous systems disorders (SOC) [1]: 73.1%
severity of TEAEs (200 mg BID, NCI-CTCAE grades): All TEAEs were of grade 1 or grade 2 severity and participants fully recovered
time for CPK value to return to baseline level (200 mg BID, one participant, CPK increase grade 2): 7 days
% of participants with treatment-emergent adverse events (TEAEs) (26 participants, 200 mg BID, 4 weeks, placebo 58.3%): 92.3%
Number of participants with treatment-emergent adverse events (TEAEs) (out of 26 participants, 200 mg BID, 4 weeks, placebo 7 of 12): 24
PCSA for vital signs, ECG and laboratory parameters (in words) (scattered across placebo and Compound 1 groups): no safety concerns based on vital signs, ECG or laboratory results; also recorded: All were considered not clinically meaningful by the investigator
